The results in this text go back to patent US12180084B2, “Cerium (III) carbonate formulations” (THE REGENTS OF THE UNIVERSITY OF CALIFORNIA, priority 2019, dated 2024).

A short description of data set [1]: CR dye photodegradation in TiO2-based sunscreen film (Neutrogena Broad Spectrum Mineral Sunscreen SPF 60+). The conditions noted are these: 3.0 wt. % added agent relative to sunscreen weight. The protocol: Films on filter paper were fabricated and photoreactor experiments were conducted exactly the same way as described in Example 7.3, using CR dye, except UV irradiation in the photoreactor was conducted for a period of 4 h. These films contained either no UV-protecting agent, 3.0 wt. % of Ce2(CO3)3·6H2O that was synthesized according to Example 3, 3.0 wt. % of commercial Ce2(CO3)3·xH2O (Acros Organics), or 3.0 wt. % of ZnO (NANOBYK-3840). […] Upon adding 3 wt. % of Ce2(CO3)3·6H2O synthesized according to Example 3 to the sunscreen formulation, a decrease in the amount of CR dye photodegradation to 15±1% is observed. […] When cerium carbonate consisting of Ce2(CO3)3·xH2O from Acros Organics is instead used in place of Ce2(CO3)3·6H2O synthesized according to Example 3, photoprotection with 24±2% CR dye photodegradation is observed. The properties of Ce2(CO3)3·xH2O from Acros Organics have been ascribed in Example 4, and these aspects are borne out in conjunction with sunscreen-based formulations here as well. When instead of cerium carbonate ZnO (NANOBYK-3840) is used as a UV-protecting agent, less effect on CR dye photodegradation is observed. This is a similar outcome to observations with MB dye and ZnO-based sunscreen formulation in Example 7.2.
The amount of Ce2(CO3)3·6H2O synthesized according to Example 3 that was incorporated into the TiO2-based sunscreen was increased to 5.0 wt. %, and results are shown in FIGS. 23A-23B and are summarized in Table 4. […] There is a slight diminishing return for adding Ce2(CO3)3·6H2O both here and in Example 7.2, but the effect of increasing Ce2(CO3)3·6H2O on organic-molecule photoprotection is much more pronounced than in the case of ZnO.

Data set [2] can be described thus: MB organic dye photodegradation in aqueous slurry with P25 photocatalyst under 254 nm light. The conditions noted are these: 1 mg Ce2(CO3)3·4H2O versus 11.4 mg Ce (III)-R706, 2 mg P25.
The nature of data set [3]: CR organic dye photodegradation in dried acrylic paint film under sunlight. The conditions noted are these: 6 h sunlight. The source says:
To investigate the effectiveness of this approach in a dry (solid) composition, Congo Red (CR) organic dye at a concentration of 3×10^−5 M was incorporated into a waterborne acrylic paint formulation dispersion, together with P25 photocatalyst (10 wt % relative to the Ti-Pure R706 pigment weight used in the dispersion).
A composition was made with 16% Ce (III)-R706 pigment volume concentration comprising CR organic dye (the pigment volume concentration is defined as the volume percentage of solid particles in the system after formation of the composition (e.g., excluding water). This was performed by first preparing a 75 wt % aqueous slurry of Ce (III)-R706 pigment by high shear mixing in presence of 0.3 wt % TAMOL™ 1124 with respect to the weight of pigment. 4.64 g of this slurry was incorporated in 12.78 g of acrylic-based BP 8164 polymer (obtained from the Dow Chemical Company), to which was added 1.966 mL of 3.5×10^−4 M CR aqueous dye solution, and 10 wt % P25 photocatalyst (with respect to pigment weight). The resulting dispersion was mixed under high-shear conditions in a high speed mixer.
Thereafter, 0.6 g of 2020E thickener (a non-ionic urethane rheology modifier) was added into the slurry, and the resulting dispersion was mixed under high-shear conditions in a high-speed mixer, to obtain the final formulation dispersion. The solid (dried) film coating was prepared with a 3 mil (1 mil=0.001 inch) bar applicator on a polyacrylic substrate and dried for 48 h prior to conducting the photocatalysis experiments. During photocatalysis, all the coatings were exposed to sunlight (under similar conditions) for an exposure period of 6 hours. Prior to sunlight exposure, 100 mg of the coating was scraped off with a sharp blade, and was extracted in 1.5 mL of absolute ethanol for UV-visible spectroscopy analysis, to obtain a datum of CR organic dye concentration in the film prior to photocatalysis. Similarly, another 100 mg portion of coating scraped off and extracted after 6 hours of sunlight exposure, and the percentage of dye degradation was calculated by UV-visible spectrophotometry.
To investigate the photopassivation effectiveness of a separate cerium (III) compound in a dry (solid) paint film coating, insoluble cerium (III) carbonate particles and CR organic dye at a concentration of 3×10^−5 M were incorporated into a waterborne acrylic paint formulation dispersion, using either Ti-Pure-R706 or the same rutile TiO2 used in Example 1 as the pigment, and assessed the rate of dye photodegradation relative to an identical dispersion, in the absence of cerium (III) carbonate particles.
The composition of this dispersion, and the procedure for synthesizing the dried coating film is described in the paragraph below. […]

A short description of data set [4]: MB dye photodecomposition under 254 nm light in the absence of any added photocatalyst. The conditions noted are these: 1 mg in 10 mL 10^−5 M MB, up to 60 min, no photocatalyst. An excerpt:
Though photocatalysis increases photodecomposition of organics, thought to be mediated by generation of reactive oxygen species (ROS), organic molecules have their own absorptivity of light due to presence of light-absorbing chemical substituents. This absorptivity of light can itself produce radicals in water, which even in the absence of a photocatalyst per se, can ultimately lead to photodegradation/decomposition of organics. Here it was investigated whether it was possible to reduce the inherent photodecomposition/degradation of methylene blue (MB) dye under exposure to 254 nm light, by using cerium (III) carbonate, in the absence of any added photocatalyst.
Two separate sets of photoreactions were performed: (1) 10 mL aqueous solution of 10^−5 M MB dye was exposed to 254 nm light under a photoreactor setup for a duration of up to 60 min and (2) 1 mg Ce2(CO3)3·4H2O that was synthesized according to the procedure described in Example 3 was dispersed in a 10 mL aqueous solution of 10^−5 M MB dye, and the resulting slurry was exposed to 254 nm light under photoreactor setup for a duration of up to 60 min.

Turning to “Ce2(CO3)3·xH2O [Ce2(CO3)3·xH2O (ACROS Organics)]”, the “% of CR dye photodegradation after 4 h of UV irradiation in photoreactor” value in data set [1] (listed as Ce2(CO3)3·xH2O from Acros Organics) came out at 24±2%; in data set [1] (listed as Commercial Ce2(CO3)3•xH2O (Acros Organics)), 24 ± 2%.

As to `O=C([O-])[O-].O=C([O-])[O-].O=C([O-])[O-].[Ce+3].[Ce+3]` [Ce2(CO3)3·4H2O], the “fold lower rate constant than with the same amount of cerium as Ce (III)-R706” value in data set [2] is 1.5 fold. The “photodegradation of CR organic dye in dried paint film” value was 29% in data set [3] (Ti-Pure R706 pigment, 2 wt. % cerium (III) carbonate relative to pigment); 12% in data set [3] (Ti-Pure R706 pigment, 5 wt. % cerium (III) carbonate relative to pigment); 20% in data set [3] (rutile TiO2 pigment, 2 wt % cerium (III) carbonate relative to pigment); “did not show any detectable CR dye photodegradation” in data set [3] (rutile TiO2 pigment, 5 wt % cerium (III) carbonate relative to pigment). Also, the “fold decreased rate of MB dye photodecomposition compared to control MB solution” value in data set [4] is ~40 fold.
